Experiment [1] concerns CD8-MerTK in Ba/F3-CDM cells. The experiment is described as follows: In cell MER kinase assay, Ba/F3-CDM cell proliferation without IL-3 (Celltiter-Glo). The settings on record: 48 hours compound treatment, read-out: Cell growth inhibition (GI50). The experiment is classed as cell-based, murine. The protocol: To establish an in cell kinase assay for MerTK kinase, the IL-3 dependent Ba/F3 cells of murine lymphoid origin was transfected with CD8-MerTK. […] For a routine cellular assay, Ba/F3-CDM cells were seeded at 2,000 cells per well in 384-well cell culture plate containing DMEM/10% FBS culture media and incubated for 24 hours before addition of compounds pre-diluted in culture media. Following compound treatment, cells were further incubated for 48 hours and the proliferation was measured. To discriminate a Ba/F3 growth inhibition by a specific inhibition of MerTK kinase following compound treatment vs growth inhibition due to a non-specific unintended cytotoxicity of compounds, we routinely carried out control sets of Ba/F3 cells in parallel that grown in IL3-supplemented growth media. In the presence of IL-3, the proliferation of Ba/F3 is no longer dependent on the MerTK activity. Cell growth and proliferation was measured with Celltiter-Glo™ system (Promega, USA) according to the manufacturer's instruction. The half-maximal growth inhibitory concentration (GI50) value was calculated with Prism6.0 software (GraphPad, USA).
In general terms: ATP-based viability assays read luminescence as a measure of living cells.

Experiment [2] has as its target human c-MER catalytic domain (Homo sapiens (Human), UniProt Q12866). Nature of the experiment: LanthaScreen TR-FRET kinase assay, c-MER.
Setting [3] is: read-out: Mer TK inhibition (IC50), Biochemical IC50, TR-FRET, 10 uM ATP.

Broadly, the GI50 is the concentration at which growth is held to half of that of the control. Broadly, the IC50 is the concentration at which inhibition is half-maximal.

Each structure is given as a SMILES string. Where two headings read alike, the source gives them in different places. Where only a bound is given, the exact number is not on record here.

Sequence of human c-MER catalytic domain (Q12866 587-858): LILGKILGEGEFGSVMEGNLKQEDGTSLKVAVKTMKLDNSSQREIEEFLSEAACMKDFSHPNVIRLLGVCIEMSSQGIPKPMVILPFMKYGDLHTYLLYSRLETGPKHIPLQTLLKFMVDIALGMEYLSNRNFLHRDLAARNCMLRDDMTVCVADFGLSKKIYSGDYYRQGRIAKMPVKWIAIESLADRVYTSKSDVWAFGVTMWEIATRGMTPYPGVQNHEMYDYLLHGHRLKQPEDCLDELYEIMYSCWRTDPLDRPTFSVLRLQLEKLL

As for `CN1C[C@H](NC(=O)c2cc(-c3cnn(C)c3)cnc2N)[C@@H](OCc2ccc(-c3ccc(CN4CCN(CCO)CC4)cc3)cc2)C1` [Example 447, 2-amino-N-((3S,4S)-4-((4′-((4-(2-hydroxyethyl)piperazin-1-yl)-methyl)-[1,1′-biphenyl]-4-yl)methoxy)-1-methylpyrrolidin-3-yl)-5-(1-methyl-1H-pyrazol-4-yl)nicotinamide], the GI50 in experiment [1] was less than 0.1 µM. For the same compound, the IC50 in experiment [2] (setting [3]) is less than 0.01 µM.
In the case of `CN1CCN(Cc2ccc(-c3ccc(CO[C@H]4CCC[C@@H]4NC(=O)c4cc(-c5cnn(C)c5)cnc4N)cc3)c(Cl)c2)CC1` [Example 202, 2-amino-N-((1S,2S)-2-((2′-chloro-4′-((4-methylpiperazin-1-yl)-methyl)-[1,1′-biphenyl]-4-yl)methoxy)cyclopentyl)-5-(1-methyl-1H-pyrazol-4-yl)-nicotinamide], in experiment [1], the GI50 is 0.1 to 0.5 µM. Further, the IC50 in experiment [2] (setting [3]) was less than 0.01 µM.
Take `Cn1cc(-c2cnc(N)c(C(=O)N[C@H]3CCC[C@@H]3OCc3ccc(-c4ccc(CO)cc4)cc3)c2)cn1` [Example 142, 2-amino-N-((1S,2S)-2-((4′-(hydroxymethyl)-[1,1′-biphenyl]-4-yl)methoxy)cyclopentyl)-5-(1-methyl-1H-pyrazol-4-yl)nicotinamide]: the GI50 in experiment [1] lay within 0.1 to 0.5 µM. The IC50 in experiment [2] (setting [3]) was less than 0.01 µM.
With `Cn1cc(-c2cnc(N)c(C(=O)N[C@H]3CCC[C@@H]3OCc3ccc(-c4ccc(CN5CCNCC5)cc4)cc3)c2)cn1` [Example 177, 2-amino-5-(1-methyl-1H-pyrazol-4-yl)-N-((1S,2S)-2-((4′-(piperazin-1-ylmethyl)-[1,1′-biphenyl]-4-yl)methoxy)cyclopentyl)nicotinamide], the GI50 in experiment [1] lay within 0.1 to 0.5 µM. Further, the IC50 in experiment [2] (setting [3]) was less than 0.01 µM.
On to `CCc1cc(CO[C@H]2CNC[C@@H]2NC(=O)c2cc(-c3ccc(NS(C)(=O)=O)cc3)cnc2N)ccc1C` [Example 401, 2-amino-N-((3S,4S)-4-((3-ethyl-4-methylbenzyl)oxy)pyrrolidin-3-yl)-5-(4-(methylsulfonamido)phenyl)nicotinamide], for which the concentration for 50% growth inhibition (GI50) in experiment [1] is greater than 1 µM. Besides, the IC50 in experiment [2] (setting [3]) was less than 0.01 µM.
As for `CCc1cc(CO[C@H]2CNC[C@@H]2NC(=O)c2cc(-c3ccc(CO)cc3)cnc2N)ccc1C` [Example 389, 2-amino-N-((3S,4S)-4-((3-ethyl-4-methylbenzyl)oxy)pyrrolidin-3-yl)-5-(4-(hydroxymethyl)phenyl)nicotinamide], the concentration for 50% growth inhibition (GI50) in experiment [1] was in the range of 0.1 to 0.5 µM. For the same compound, the IC50 in experiment [2] (setting [3]) was less than 0.01 µM.
Regarding `CC(c1ccc(-c2ccc(CO[C@H]3CCC[C@@H]3NC(=O)c3cc(-c4ccc(F)nc4)cnc3N)cc2)cc1)N1CCN(CCO)CC1` (stereo partly drawn) [Example 237, 6-amino-6′-fluoro-N-((1S,2S)-2-((4′-(1-(4-(2-hydroxyethyl)-piperazin-1-yl)ethyl)-[1,1′-biphenyl]-4-yl)methoxy)cyclopentyl)-[3,3′-bipyridine]-5-carboxamide], in experiment [1], the 50% growth inhibitory concentration (GI50) was less than 0.1 µM. Moreover, the IC50 in experiment [2] (setting [3]) was less than 0.01 µM.
In the case of `Cn1cc(-c2cnc(N)c(C(=O)N[C@H]3CCC[C@@H]3OCc3ccc(-c4ccc(CC5CCN(CCO)CC5)cc4)cc3)c2)cn1` [Example 240, 2-amino-N-((1S,2S)-2-((4′-((1-(2-hydroxyethyl)piperidin-4-yl)-methyl)-[1,1′-biphenyl]-4-yl)methoxy)cyclopentyl)-5-(1-methyl-1H-pyrazol-4-yl)-nicotinamide], in experiment [1], the GI50 was less than 0.1 µM. Moreover, the IC50 in experiment [2] (setting [3]) is less than 0.01 µM.
Consider `CCc1cc(CO[C@H]2CNC[C@@H]2NC(=O)c2cc(-c3ccc(C(N)=O)cc3)cnc2N)ccc1C` [Example 391, 2-amino-5-(4-carbamoylphenyl)-N-((3S,4S)-4-((3-ethyl-4-methylbenzyl)oxy)pyrrolidin-3-yl)nicotinamide], for which the GI50 in experiment [1] is greater than 1 µM. In experiment [2] (setting [3]), the IC50 was less than 0.01 µM.
Take `CCc1cc(CO[C@H]2CNC[C@@H]2NC(=O)c2cc(-c3cnn(C)c3)cnc2N)ccc1C` [Example 388, 2-amino-N-((3S,4S)-4-((3-ethyl-4-methylbenzyl)oxy)pyrrolidin-3-yl)-5-(1-methyl-1H-pyrazol-4-yl)nicotinamide]: the GI50 in experiment [1] lay within 0.1 to 0.5 µM. In experiment [2], this compound had an IC50 of less than 0.01 µM.
For the compound `CCc1cc(CO[C@H]2CN(C)C[C@@H]2NC(=O)c2cc(-c3cnn(C)c3)cnc2N)ccc1C` [Example 426, 2-amino-N-((3S,4S)-4-((3-ethyl-4-methylbenzyl)oxy)-1-methylpyrrolidin-3-yl)-5-(1-methyl-1H-pyrazol-4-yl)nicotinamide], in experiment [1], the GI50 lay within 0.5 to 1 µM. Also, in experiment [2] (setting [3]), the IC50 was less than 0.01 µM.
For `CC(c1c(F)cc(-c2ccc(CO[C@H]3CCC[C@@H]3NC(=O)c3cc(-c4cnn(C)c4)cnc3N)cc2)cc1F)N1CCN(CCO)CC1` (stereo partly drawn) [Example 212, 2-amino-N-((1S,2S)-2-((3′,5′-difluoro-4′-(1-(4-(2-hydroxyethyl)-piperazin-1-yl)ethyl)-[1,1′-biphenyl]-4-yl)methoxy)cyclopentyl)-5-(1-methyl-1H-pyrazol-4-yl)nicotinamide] the same measures were greater than 1 µM and less than 0.01 µM.
Turning to `CC(c1ccc(-c2ccc(CO[C@H]3CCC[C@@H]3NC(=O)c3cc(-c4cncc(F)c4)cnc3N)cc2)cc1)N1CCN(CCO)CC1` (stereo partly drawn) [Example 236, 6-amino-5′-fluoro-N-((1S,2S)-2-((4′-(1-(4-(2-hydroxyethyl)-piperazin-1-yl)ethyl)-[1,1′-biphenyl]-4-yl)methoxy)cyclopentyl)-[3,3′-bipyridine]-5-carboxamide], the GI50 in experiment [1] is less than 0.1 µM. The IC50 in experiment [2] (setting [3]) is less than 0.01 µM.
`CC(c1ccc(-c2ccc(CO[C@H]3CCC[C@@H]3NC(=O)c3cc(-c4cnn(C)c4)cnc3N)cc2)cc1)N1C[C@@H](C)N(C)[C@@H](C)C1` (stereo partly drawn) [Example 209, 2-amino-5-(1-methyl-1H-pyrazol-4-yl)-N-((1S,2S)-2-((4′-(1-((3S,5R)-3,4,5-trimethylpiperazin-1-yl)ethyl)-[1,1′-biphenyl]-4-yl)methoxy)-cyclopentyl)nicotinamide]: the GI50 in experiment [1] was less than 0.1 µM. Besides, the IC50 in experiment [2] (setting [3]) is less than 0.01 µM.
For the compound `CN(C)CCCOc1ccc(-c2ccc(CO[C@H]3CCC[C@@H]3NC(=O)c3cc(-c4cnn(C)c4)cnc3N)cc2)cc1` [Example 246, 2-amino-N-((1S,2S)-2-((4′-(3-(dimethylamino)propoxy)-[1,1′-biphenyl]-4-yl)methoxy)cyclopentyl)-5-(1-methyl-M-pyrazol-4-yl)nicotinamide], the GI50 in experiment [1] was in the range of 0.1 to 0.5 µM. In addition, the IC50 in experiment [2] (setting [3]) is less than 0.01 µM.
In the case of `Cn1cc(-c2cnc(N)c(C(=O)N[C@H]3COC[C@@H]3OCc3ccc(-c4ccc(CN5CCN(CCO)CC5)c(C(F)(F)F)c4)cc3)c2)cn1` [Example 452, 2-amino-N-((3S,4R)-4-((4′-((4-(2-hydroxyethyl)piperazin-1-yl)-methyl)-3′-(trifluoromethyl)-[1,1′-biphenyl]-4-yl)methoxy)tetrahydrofuran-3-yl)-5-(1-methyl-1H-pyrazol-4-yl)nicotinamide], the GI50 in experiment [1] is less than 0.1 µM. Further, the IC50 in experiment [2] (setting [3]) is less than 0.01 µM.
As for `Cn1cc(-c2cnc(N)c(C(=O)N[C@H]3CCC[C@@H]3OCc3ccc(-c4ccc(CN5CCN(CCO)CC5)cc4Cl)cc3)c2)cn1` [Example 206, 2-amino-N-((1S,2S)-2-((2′-chloro-4′-((4-(2-hydroxyethyl)-piperazin-1-yl)methyl)-[1,1′-biphenyl]-4-yl)methoxy)cyclopentyl)-5-(1-methyl-1H-pyrazol-4-yl)nicotinamide], the concentration for 50% growth inhibition (GI50) in experiment [1] lay within 0.1 to 0.5 µM. Moreover, in experiment [2] (setting [3]), the IC50 was less than 0.01 µM.

These data come from patent US10125118B2, “Heteroaryl compounds and their use as therapeutic drugs” (Dong-A Socio Holdings Co., Ltd., priority 2015, dated 2018).
